Patent US20150218212A1, “FLUORINATED EPOXYKETONE-BASED TETRAPEPTIDE COMPOUNDS AND USES THEREOF AS PROTEASOME INHIBITORS” (FLUORINOV PHARMA INC., priority 2012, published 2015)

Assays:
Format in all cases: cell-based, human
UO-31 = assay: NCI screening panel, UO-31 (Renal Cancer)
Description: (§1) Representative compounds of Formula I were screened using the National Cancer Institute (NCI) screening panel, which consists of a panel of human tumor cell lines, representing leukemia, melanoma, and cancers of the lung, colon, ovary, breast, prostate and renal system.
(§2) After 24 h, two plates of each cell line are fixed in situ with TCA, to represent a measurement of the cell population for each cell line at the time of drug addition (Tz). Experimental drugs are solubilised in dimethyl sulfoxide at 400-fold the desired final maximum test concentration and stored frozen prior to use. At the time of drug addition, an aliquot of frozen concentrate is thawed and diluted to twice the desired final maximum test concentration with complete medium containing 50 μg/mL gentamicin. Additional four, 10-fold or ½ log serial dilutions are made to provide a total of five drug concentrations plus control. Aliquots of 100 μl of these different drug dilutions are added to the appropriate microtiter wells already containing 100 μl of medium, resulting in the required final drug concentrations.
(§3) Following drug addition, the plates are incubated for an additional 48 h at 37° C., 5% CO2, 95% air, and 100% relative humidity. For adherent cells, the assay is terminated by the addition of cold TCA (trichloroacetic acid). Cells are fixed in situ by the gentle addition of 50 μl of cold 50% (w/v) TCA (final concentration, 10% TCA) and incubated for 60 minutes at 4° C. The supernatant is discarded, and the plates are washed five times with tap water and air dried. Sulforhodamine B (SRB) solution (100 μl) at 0.4% (w/v) in 1% acetic acid is added to each well, and plates are incubated for 10 minutes at room temperature. After staining, unbound dye is removed by washing five times with 1% acetic acid and the plates are air dried. Bound stain is subsequently solubilised with 10 mM trizma base, and the absorbance is read on an automated plate reader at a wavelength of 515 nm. For suspension cells, the methodology is the same except that the assay is terminated by fixing settled cells at the bottom of the wells by gently adding 50 μl of 80% TCA (final concentration, 16% TCA). Using the seven absorbance measurements [time zero, (Tz), control growth, (C), and test growth in the presence of drug at the five concentration levels (Ti)], the percentage growth is calculated at each of the drug concentrations levels. Percentage growth inhibition is calculated as: [(Ti−Tz)/(C−Tz)]×100 for concentrations for which Ti>/=Tz and [(Ti−Tz)/Tz]×100 for concentrations for which Ti<Tz.
(§4) Three dose response parameters are calculated for each experimental agent. Growth inhibition of 50% (GI50) is calculated from [(Ti−Tz)/(C−Tz)]×100=50, which is the drug concentration resulting in a 50% reduction in the net protein increase (as measured by SRB staining) in control cells during the drug incubation. The drug concentration resulting in total growth inhibition (TGI) is calculated from Ti=Tz. The LC50 (concentration of drug resulting in a 50% reduction in the measured protein at the end of the drug treatment as compared to that at the beginning) indicating a net loss of cells following treatment is calculated from [(Ti−Tz)/Tz]×100=−50. Values are calculated for each of these three parameters if the level of activity is reached. However, if the effect is not reached or is exceeded, the value for that parameter is expressed as greater or less than the maximum or minimum concentration tested.

CAKI-1 = assay: NCI screening panel, CAKI-1 (Renal Cancer)
Description: as §1, §2, §3, §4

NCI/ADR-RES = assay: NCI screening panel, NCI/ADR-RES (Ovarian Cancer)
Description: as §1, §2, §3, §4

SMILES	Log10GI50 (UO-31)	Log10LC50 (UO-31)	Log10TGI50 (UO-31)	Log10GI50 (CAKI-1)	Log10LC50 (CAKI-1)	Log10TGI50 (CAKI-1)	Log10GI50 (NCI/ADR-RES)	Log10LC50 (NCI/ADR-RES)	Log10TGI50 (NCI/ADR-RES)
CC(C)C[C@H](NC(=O)[C@H](COC(F)F)NC(=O)CN1CCOCC1)C(=O)N[C@@H](COC(F)F)C(=O)N[C@@H](CC(C)C)C(=O)[C@@]1(C)CO1 [Example 1, (2S)—N-[(1S)-1-(difluoromethoxymethyl)-2-[[(1S)-3-methyl-1-[(2R)-2-methyloxirane-2-carbonyl]butyl]amino]-2-oxo-ethyl]-2-[[(2S)-3-(difluoromethoxy)-2-[(2-morpholinoacetyl)amino]propanoyl]amino]-4-methyl-pentanamide]	−5.70	>−4.00	−4.86	−6.29	>−4.00	−5.24	−5.10	>−4.00	>−4.00
CC(C)C[C@H](NC(=O)[C@H](COC(F)F)NC(=O)CN1CCOCC1)C(=O)N[C@@H](Cc1ccccc1)C(=O)N[C@@H](CC(C)C)C(=O)[C@@]1(C)CO1 [Example 2, (2S)-N-[(1S)-1-benzyl-2-[[(1S)-3-methyl-1-[(2R)-2-methyloxirane-2-carbonyl]butyl]-amino]-2-oxo-ethyl]-2-[[(2S)-3-(difluoromethoxy)-2-[(2-morpholinoacetyl)amino]propanoyl]amino]-4-methyl-pentanamide]	−6.49	−5.01	−5.80	−6.68	>−4.00	−5.93	−5.80	>−4.00	>−4.00
CC(C)C[C@H](NC(=O)[C@H](COC(F)F)NC(=O)CN1CCOCC1)C(=O)N[C@@H](Cc1ccccc1)C(=O)N[C@@H](Cc1ccccc1)C(=O)[C@@]1(C)CO1 [Example 3, (2S)-N-[(1S)-1-benzyl-2-[[(1S)-1-benzyl-2-[(2R)-2-methyloxiran-2-yl]-2-oxo-ethyl]amino]-2-oxo-ethyl]-2-[[(2S)-3-(difluoromethoxy)-2-[(2-morpholinoacetyl)-amino]propanoyl]amino]-4-methyl-pentan-amide]	−6.65	−5.08	−5.91	−7.11	−4.92	−6.30	−5.86	>−4.00	>−4.00
CC(C)C[C@H](NC(=O)[C@H](COC(F)F)NC(=O)CN1CCOCC1)C(=O)N[C@@H](COC(F)F)C(=O)N[C@@H](Cc1ccccc1)C(=O)[C@@]1(C)CO1 [Example 4, (2S)-N-[(1S)-2-[[(1S)-1-benzyl-2-[(2R)-2-methyloxiran-2-yl]-2-oxo-ethyl]amino]-1-(difluoromethoxymethyl)-2-oxo-ethyl]-2-[[(2S)-3-(difluoromethoxy)-2-[(2-mor-pholinoacetyl)amino]propanoyl]amino]-4 methyl-pentanamide]	−5.77	−4.22	−5.24	−6.20	>−4.00	−5.22	−5.19	>−4.00	>−4.00
CC(C)C[C@H](NC(=O)[C@H](COC(F)F)NC(=O)[C@H](COC(F)F)NC(=O)[C@H](CCc1ccccc1)NC(=O)CN1CCOCC1)C(=O)[C@@]1(C)CO1 [Example 7, (2S)-N-[(1S)-1-(difluoromethoxymethyl)-2-[[(1S)-1-(difluoromethoxymethyl)-2-[[(1S)-3-methyl-1-[(2R)-2-methyloxirane-2-carbo-nyl]butyl]amino]-2-oxo-ethyl]amino]-2-oxo-ethyl]-2-[(2-morpholinoacetyl)amino]-4-phenyl-butanamide]	−5.97	−4.70	−5.45	−6.40	>−4.00	−5.62	−5.16	>−4.00	>−4.00
CC(C)C[C@H](NC(=O)[C@H](Cc1ccccc1)NC(=O)[C@H](COC(F)F)NC(=O)[C@H](COC(F)F)NC(=O)CN1CCOCC1)C(=O)[C@@]1(C)CO1 [Example 11, (2S)-2-[[(2S)-3-(difluoromethoxy)-2-[[(2S)-3-(difluoromethoxy)-2-[(2-morpholinoacetyl)-amino]propanoyl]amino]propanoyl]amino]-N-[(1S)-3-methyl-1-[(2R)-2-methyloxirane-2-carbonyl]butyl]-3-phenyl-propanamide]	−6.17	−4.24	−5.47	−6.39	>−4.00	−5.55	−5.16	>−4.00	>−4.00
CC(C)C[C@H](NC(=O)[C@H](COC(F)F)NC(=O)[C@H](COC(F)F)NC(=O)[C@H](COC(F)F)NC(=O)CN1CCOCC1)C(=O)[C@@]1(C)CO1 [Example 17, (2S)-3-(difluoromethoxy)-N-[(1S)-1-(difluoromethoxymethyl)-2-[[(1S)-1-(difluoro-methoxymethyl)-2-[[(1S)-3-methyl-1-[(2R)-2-methyloxirane-2-carbonyl]butyl]amino]-2-oxo-ethyl]amino]-2-oxo-ethyl]-2-[(2-mor-pholinoacetyl)amino]-propanamide]	−5.40	−4.00	−4.65	−5.54	>−4.00	−4.81	−4.50	>−4.00	>−4.00
